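96-well plates; 48 h exposure; 5 concentrations. Endpoints by linear interpolation between flanking doses. Not reached: highest tested concentration assigned. Here, GI50 denotes the concentration required for 50% inhibition of growth.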 Calls of active or inactive are those of the source. No stated cut-off is given here; in the data, active = GI50 up to about 1.1 µM and inactive = higher.
Legend:
Test in all cases: NCI-60 cell line screen, 48 h
DU-145 = tested on: DU-145
HCT-15 = tested on: HCT-15
Hs-578T = tested on: Hs-578T
IGROV-1 = tested on: IGROV-1
K562 = tested on: K562
MDA-MB-231 = tested on: MDA-MB-231
MDA-MB-435 = tested on: MDA-MB-435
MDA-N = tested on: MDA-N
MOLT-4 = tested on: MOLT-4
NCI-H460 = tested on: NCI-H460
NCI/ADR-RES = tested on: NCI/ADR-RES
OVCAR-3 = tested on: OVCAR-3
RXF 393 = tested on: RXF 393
SK-MEL-28 = tested on: SK-MEL-28
SNB-75 = tested on: SNB-75
SR = tested on: SR
UACC-257 = tested on: UACC-257
UACC-62 = tested on: UACC-62
UO-31 = tested on: UO-31
TK-10 = tested on: TK-10

| Structure (SMILES) | GI50 (DU-145) | GI50 (HCT-15) [µM] | GI50 (Hs-578T) | GI50 (IGROV-1) | GI50 (K562) | GI50 (MDA-MB-231) | GI50 (MDA-MB-435) | GI50 (MDA-N) | GI50 (MOLT-4) | GI50 (NCI-H460) | GI50 (NCI/ADR-RES) | GI50 (OVCAR-3) | GI50 (RXF 393) | GI50 (SK-MEL-28) | GI50 (SNB-75) | GI50 (SR) | GI50 (UACC-257) | GI50 (UACC-62) | GI50 (UO-31) | GI50 (TK-10) |
| --- | --- | --- | --- | --- | --- | --- | --- | --- | --- | --- | --- | --- | --- | --- | --- | --- | --- | --- | --- | --- |
| CO[C@@H]1C[C@H](OC(N)=O)[C@@H]2C=C[C@@H]3/C=C(C)/C=C/[C@@H](C)[C@H]([C@H](C)[C@H](O)[C@@H](C)NC(C)=O)OC(=O)/C=C/C=C(C)\C=C\[C@]3(C)[C@@H]2C1 | < 0.01 µM (active) | < 0.01 | < 0.01 µM (active) | < 0.01 µM (active) | 0.0101 µM (active) | < 0.0316 µM (active) | < 0.01 µM (active) | < 0.01 µM (active) | 0.332 µM (active) | < 0.01 µM (active) | < 0.01 µM (active) | < 0.0436 µM (active) | < 0.01 µM (active) | < 0.01 µM (active) | < 0.01 µM (active) | < 0.01 µM (active) | 0.0354 µM (active) | < 0.01 µM (active) | < 0.01 µM (active) | – |
| COC(=O)c1cc(NC(=O)Cc2c[nH]c3ccccc23)cn1C | > 100 µM (inactive) | 62.5 | 33.7 µM (inactive) | 22.5 µM (inactive) | 58.1 µM (inactive) | 27.4 µM (inactive) | 55.8 µM (inactive) | > 100 µM (inactive) | 43.2 µM (inactive) | 70.5 µM (inactive) | > 100 µM (inactive) | > 100 µM (inactive) | > 100 µM (inactive) | 42 µM (inactive) | – | 39.4 µM (inactive) | > 100 µM (inactive) | 8.69 µM (inactive) | 23.6 µM (inactive) | 87.9 µM (inactive) |
| COc1ccc(OC)c2sc(N3C(=O)/C(=C/c4ccc(SC)cc4)N=C3c3ccccc3)nc12 | 39.9 µM (inactive) | 43.1 | 17.7 µM (inactive) | 23.3 µM (inactive) | > 100 µM (inactive) | > 100 µM (inactive) | 17.2 µM (inactive) | 20.3 µM (inactive) | 22.3 µM (inactive) | 28.6 µM (inactive) | 29.3 µM (inactive) | 20.4 µM (inactive) | – | > 100 µM (inactive) | 18.3 µM (inactive) | 26.4 µM (inactive) | 17.3 µM (inactive) | 31.5 µM (inactive) | 24.2 µM (inactive) | > 100 µM (inactive) |
| O=C1CSC(c2ccccc2[N+](=O)[O-])N1c1ccc(-c2ccc(-n3c(-c4ccccc4)nc4ccccc4c3=O)cc2)cc1 (stereo not given) | > 100 µM (inactive) | 74.3 | > 100 µM (inactive) | 57.1 µM (inactive) | 67.3 µM (inactive) | > 100 µM (inactive) | > 100 µM (inactive) | > 100 µM (inactive) | 43.2 µM (inactive) | > 100 µM (inactive) | 86.5 µM (inactive) | > 100 µM (inactive) | – | > 100 µM (inactive) | 18.4 µM (inactive) | 44.6 µM (inactive) | > 100 µM (inactive) | 36.6 µM (inactive) | 29.9 µM (inactive) | > 100 µM (inactive) |
| CC(=O)OCC1OC(n2c(=O)[nH]c(=O)c3sccc32)C(Br)C1OC(C)=O (stereo not given) | > 100 µM (inactive) | > 100 | > 100 µM (inactive) | > 100 µM (inactive) | > 100 µM (inactive) | > 100 µM (inactive) | > 100 µM (inactive) | > 100 µM (inactive) | > 100 µM (inactive) | > 100 µM (inactive) | > 100 µM (inactive) | > 100 µM (inactive) | > 100 µM (inactive) | > 100 µM (inactive) | > 100 µM (inactive) | > 100 µM (inactive) | > 100 µM (inactive) | – | > 100 µM (inactive) | > 100 µM (inactive) |
| COC(=O)[C@@H](COC(=O)/C=C/c1ccc(OC(C)=O)c(OC(C)=O)c1)NC(=O)/C=C/c1ccc(OC(C)=O)c(OC(C)=O)c1 | 22.8 µM (inactive) | 19.7 | 25.2 µM (inactive) | 32.4 µM (inactive) | > 100 µM (inactive) | 22.6 µM (inactive) | 29.5 µM (inactive) | 18.3 µM (inactive) | 38.5 µM (inactive) | 18.5 µM (inactive) | 51.5 µM (inactive) | 20.5 µM (inactive) | 35.1 µM (inactive) | 70.8 µM (inactive) | 20.9 µM (inactive) | 8.49 µM (inactive) | 51.8 µM (inactive) | 19.6 µM (inactive) | – | – |
| CC(C)=CCC/C(C)=C\CC/C(C)=C/CO | 27.1 µM (inactive) | 40.1 | 28.8 µM (inactive) | 24.4 µM (inactive) | 19.7 µM (inactive) | 42 µM (inactive) | 19.6 µM (inactive) | 65.6 µM (inactive) | 20.5 µM (inactive) | > 10 µM (inactive) | 13.7 µM (inactive) | 16.8 µM (inactive) | – | 44.9 µM (inactive) | 31.9 µM (inactive) | 21.4 µM (inactive) | 36.1 µM (inactive) | – | 22.5 µM (inactive) | 25.7 µM (inactive) |
| Cn1cc2c3ccccc3nc-2c2ccccc21 [ISOCRYPTOLEPINE] | 2.31 µM (inactive) | 1.97 | 2.3 µM (inactive) | 1.63 µM (inactive) | 1.94 µM (inactive) | 2.35 µM (inactive) | 2.39 µM (inactive) | 2.04 µM (inactive) | 0.421 µM (active) | 1.44 µM (inactive) | 1.72 µM (inactive) | 2.36 µM (inactive) | – | 2.38 µM (inactive) | 1.8 µM (inactive) | 0.397 µM (active) | 2.31 µM (inactive) | 1.6 µM (inactive) | 1.4 µM (inactive) | 3.93 µM (inactive) |

— ChEMBL document CHEMBL1201862, “PubChem BioAssay data set” (2004)
